Test in all cases: AlphaScreen proximity-based integrin binding assay with TGF-b1 LAP
Conditions in all cases: values given as ranges
(In general: Alpha assays give light when donor and acceptor beads are brought close together.)

The target of assay [1] is human integrin αVβ1 (Homo sapiens, UniProt P05556+P06756). Here is the method:
(§1) The biochemical potency of the disclosed compounds was determined using the AlphaScreen® (Perkin Elmer, Waltham, MA) proximity-based assay as described previously (Ullman E F et al., Luminescent oxygen channeling immunoassay: Measurement of particle binding kinetics by chemiluminescence. Proc. Natl. Acad. Sci. USA, Vol. 91, pp. 5426-5430, June 1994, herein incorporated by reference in its entirety). To gauge the potency of inhibitors of binding to each of human integrins αVβ1, αVβ6, and αVβ8, inhibitor compounds were independently incubated with one of αVβ1, αVβ6, or αVβ8, together with TGF-b1 LAP and biotinylated anti-LAP antibody plus acceptor and donor beads, following the manufacture's recommendations. The donor beads were coated with streptavidin. […] All incubations occurred at room temperatures in 50 mM Tris-HCl, pH 7.5, 0.1% BSA supplemented with 1 mM each CaCl2 and MgCl2.
(§2) The order of reagent addition was as follows:
(§3) 1. αVβ1, αVβ6, or αVβ8 integrin, test inhibitor compound, LAP, biotinylated anti-LAP antibody and acceptor beads were all added together.
(§4) 2. After 2 hours, donor beads were added. After another 30 minute incubation, samples were then read.
(§5) Integrin binding was evaluated by exciting donor beads at 680 nm, and measuring the fluorescent signal produced, between 520-620 nm, using a Biotek Instruments (Winooski, VT, USA) SynergyNeo2 multimode plate reader. Compound potency was assessed by determining inhibitor concentrations required to reduce fluorescent light output by 50%. Data analysis for IC50 determinations was carried out by nonlinear four parameter logistic regression analysis using Dotmatics ELN Software (Core Informatics Inc., Branford, Ct). […] Comp #in the Table and Examples below refers to the compound of the corresponding Example number as described in the Synthetic Examples.

The target of assay [2] is human integrin αVβ6 (Homo sapiens, UniProt P06756+P18564). Here is the method:
as §1, §2, §3, §4, §5

In assay [3] the target is human integrin αVβ8 (Homo sapiens, UniProt P06756+P26012). Here is the method:
as §1, §2, §3, §4, §5

A value given as a limit tells only on which side of the number the result lay.

Chain of human integrin αVβ6 (P06756 31-992 limits assumed): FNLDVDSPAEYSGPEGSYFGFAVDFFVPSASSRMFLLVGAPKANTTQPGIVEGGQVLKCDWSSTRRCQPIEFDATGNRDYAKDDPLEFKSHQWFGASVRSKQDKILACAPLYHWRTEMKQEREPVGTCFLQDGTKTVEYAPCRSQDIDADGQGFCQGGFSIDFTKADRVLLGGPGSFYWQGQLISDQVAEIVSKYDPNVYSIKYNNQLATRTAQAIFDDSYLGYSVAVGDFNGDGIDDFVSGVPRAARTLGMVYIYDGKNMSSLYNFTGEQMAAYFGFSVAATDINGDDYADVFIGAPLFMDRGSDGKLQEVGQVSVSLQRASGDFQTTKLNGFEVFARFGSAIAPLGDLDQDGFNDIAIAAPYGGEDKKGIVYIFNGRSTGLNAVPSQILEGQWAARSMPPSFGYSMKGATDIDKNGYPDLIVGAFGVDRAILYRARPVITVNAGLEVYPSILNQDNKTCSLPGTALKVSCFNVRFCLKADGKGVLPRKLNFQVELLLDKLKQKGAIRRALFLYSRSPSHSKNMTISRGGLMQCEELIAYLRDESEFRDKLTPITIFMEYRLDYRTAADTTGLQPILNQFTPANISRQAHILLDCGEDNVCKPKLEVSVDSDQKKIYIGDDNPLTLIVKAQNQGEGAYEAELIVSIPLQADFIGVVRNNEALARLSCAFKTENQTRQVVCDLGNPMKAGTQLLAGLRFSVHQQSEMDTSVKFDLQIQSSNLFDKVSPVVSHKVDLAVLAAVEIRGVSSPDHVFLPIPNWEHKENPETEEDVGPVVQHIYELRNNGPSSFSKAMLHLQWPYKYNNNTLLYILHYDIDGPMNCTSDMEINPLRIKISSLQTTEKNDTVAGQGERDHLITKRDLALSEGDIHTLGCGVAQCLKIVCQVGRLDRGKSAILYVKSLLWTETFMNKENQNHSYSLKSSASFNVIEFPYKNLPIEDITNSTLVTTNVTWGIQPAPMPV
Chain of human integrin αVβ6 (P18564 22-707 limits assumed): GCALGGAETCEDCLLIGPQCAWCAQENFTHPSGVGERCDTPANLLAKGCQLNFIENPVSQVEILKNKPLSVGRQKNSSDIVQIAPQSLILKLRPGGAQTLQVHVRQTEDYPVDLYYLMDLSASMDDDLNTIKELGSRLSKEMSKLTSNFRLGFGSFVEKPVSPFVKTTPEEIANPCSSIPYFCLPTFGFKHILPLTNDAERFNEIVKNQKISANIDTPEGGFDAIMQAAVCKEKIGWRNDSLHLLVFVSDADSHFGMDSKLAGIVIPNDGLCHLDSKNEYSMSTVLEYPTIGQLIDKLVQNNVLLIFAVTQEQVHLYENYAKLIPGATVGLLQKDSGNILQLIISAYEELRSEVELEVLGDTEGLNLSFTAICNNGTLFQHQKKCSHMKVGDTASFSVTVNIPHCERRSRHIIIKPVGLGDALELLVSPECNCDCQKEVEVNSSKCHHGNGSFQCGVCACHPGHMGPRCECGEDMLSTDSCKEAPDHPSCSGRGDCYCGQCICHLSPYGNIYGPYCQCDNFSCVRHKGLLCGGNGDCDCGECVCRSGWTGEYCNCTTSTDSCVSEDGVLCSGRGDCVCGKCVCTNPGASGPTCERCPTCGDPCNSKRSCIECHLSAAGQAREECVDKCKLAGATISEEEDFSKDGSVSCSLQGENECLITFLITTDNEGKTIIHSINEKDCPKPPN
Chain of human integrin αVβ8 (P06756 31-992 limits assumed): as the sequence (P06756 31-992 limits assumed) above
Chain of human integrin αVβ8 (P26012 43-684 limits assumed): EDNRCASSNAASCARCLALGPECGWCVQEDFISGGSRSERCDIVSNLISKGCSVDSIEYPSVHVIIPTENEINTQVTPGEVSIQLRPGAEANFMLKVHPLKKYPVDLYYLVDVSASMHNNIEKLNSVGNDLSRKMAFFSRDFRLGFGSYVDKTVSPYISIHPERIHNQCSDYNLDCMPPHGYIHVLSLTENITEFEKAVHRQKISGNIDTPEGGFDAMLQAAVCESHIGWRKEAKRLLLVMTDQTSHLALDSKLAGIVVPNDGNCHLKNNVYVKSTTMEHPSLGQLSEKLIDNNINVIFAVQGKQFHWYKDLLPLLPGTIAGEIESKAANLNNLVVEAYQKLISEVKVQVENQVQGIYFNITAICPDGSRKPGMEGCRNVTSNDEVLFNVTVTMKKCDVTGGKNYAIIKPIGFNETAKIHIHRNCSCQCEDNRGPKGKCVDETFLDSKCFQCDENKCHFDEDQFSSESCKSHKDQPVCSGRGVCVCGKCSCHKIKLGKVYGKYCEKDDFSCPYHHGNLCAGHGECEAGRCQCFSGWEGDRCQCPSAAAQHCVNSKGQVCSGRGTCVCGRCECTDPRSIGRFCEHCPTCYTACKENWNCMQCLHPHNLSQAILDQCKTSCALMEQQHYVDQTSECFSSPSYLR
Chain of human integrin αVβ1 (P06756 31-992 limits assumed): as the sequence (P06756 31-992 limits assumed) above
Chain of human integrin αVβ1 (P05556 21-728 limits assumed): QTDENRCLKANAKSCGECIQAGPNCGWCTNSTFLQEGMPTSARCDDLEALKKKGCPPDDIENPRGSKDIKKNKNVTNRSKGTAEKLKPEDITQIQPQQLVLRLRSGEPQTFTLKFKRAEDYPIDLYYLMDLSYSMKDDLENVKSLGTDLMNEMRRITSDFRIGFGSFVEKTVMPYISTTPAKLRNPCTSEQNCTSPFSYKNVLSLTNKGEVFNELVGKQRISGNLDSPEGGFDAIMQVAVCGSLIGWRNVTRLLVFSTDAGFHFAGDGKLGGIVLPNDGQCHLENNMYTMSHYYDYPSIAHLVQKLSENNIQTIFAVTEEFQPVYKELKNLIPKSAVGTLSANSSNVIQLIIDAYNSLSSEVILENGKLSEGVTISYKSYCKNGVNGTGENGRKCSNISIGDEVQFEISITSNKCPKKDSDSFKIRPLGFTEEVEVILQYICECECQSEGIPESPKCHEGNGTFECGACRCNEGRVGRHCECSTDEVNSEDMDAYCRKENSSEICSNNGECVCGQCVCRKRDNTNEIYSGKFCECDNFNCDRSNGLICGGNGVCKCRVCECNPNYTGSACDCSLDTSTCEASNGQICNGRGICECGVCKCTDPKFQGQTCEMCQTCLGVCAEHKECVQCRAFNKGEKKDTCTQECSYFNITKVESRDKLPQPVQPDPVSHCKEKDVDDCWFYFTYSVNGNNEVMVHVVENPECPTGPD

In the case of `CC(C)(C(=O)NC(CCOCCCCc1ccc2c(n1)NCCC2)C(=O)O)c1ccccc1` (stereo not drawn) [Compound 1, N-(2-methyl-2-phenylpropanoyl)-O-(4-(5,6,7,8-tetrahydro-1,8-naphthyridin-2-yl)butyl)homoserine], the IC50 in assay [1] is below 50 nM; in assay [2], at least 500 nM; in assay [3] it was 50 to 150 nM.

With `CC(C)(C(=O)N[C@@H](CCOCCCCc1ccc2c(n1)NCCC2)C(=O)O)c1ccccc1` [Compound 2, N-(2-methyl-2-phenylpropanoyl)-O-(4-(5,6,7,8-tetrahydro-1,8-naphthyridin-2-yl)butyl)-L-homoserine], the values for the IC50 in assay [1], in assay [2] and in assay [3] were below 50 nM, at least 500 nM and 50 to 150 nM, respectively.

For `C[C@H](C(=O)N[C@@H](CCOCCCCc1ccc2c(n1)NCCC2)C(=O)O)c1ccccc1` [Compound 3, N—((S)-2-phenylpropanoyl)-O-(4-(5,6,7,8-tetrahydro-1,8-naphthyridin-2-yl)butyl)-L-homoserine], the IC50 in assay [1] is below 50 nM; in assay [2], at least 500 nM; in assay [3], below 50 nM.

For `COc1ccc(F)c(F)c1C(C)(C)C(=O)N[C@@H](CCOCCCCc1ccc2c(n1)NCCC2)C(=O)O` [Compound 4, N-(2-(2,3-difluoro-6-methoxyphenyl)-2-methylpropanoyl)-O-(4-(5,6,7,8-tetrahydro-1,8-naphthyridin-2-yl)butyl)-L-homoserine], the IC50 in assay [1] is 50 to 150 nM; in assay [2] it was at least 500 nM; in assay [3] it was 150 to 250 nM.

On to `CC(C)(C(=O)N[C@@H](CCOCCCCc1ccc2c(n1)NCCC2)C(=O)O)c1c(F)cccc1OC(F)F` [Compound 5, N-(2-(2-(difluoromethoxy)-6-fluorophenyl)-2-methylpropanoyl)-O-(4-(5,6,7,8-tetrahydro-1,8-naphthyridin-2-yl)butyl)-L-homoserine], for which the IC50 in assay [1] is below 50 nM; in assay [2], at least 500 nM; in assay [3], 50 to 150 nM.

For `O=C(O)[C@H](CCOCCCCc1ccc2c(n1)NCCC2)NC(=O)C1(c2ccccc2Cl)CC1` [Compound 6, N-(1-(2-chlorophenyl)cyclopropane-1-carbonyl)-O-(4-(5,6,7,8-tetrahydro-1,8-naphthyridin-2-yl)butyl)-L-homoserine], the IC50 in assay [1] is below 50 nM; in assay [2], at least 500 nM; in assay [3], below 50 nM.

For `O=C(O)[C@H](CCOCCCCc1ccc2c(n1)NCCC2)NC(=O)C1(c2c(Cl)cccc2Cl)CC1` [Compound 7, N-(1-(2,6-dichlorophenyl)cyclopropane-1-carbonyl)-O-(4-(5,6,7,8-tetrahydro-1,8-naphthyridin-2-yl)butyl)-L-homoserine], the IC50 in assay [1] is below 50 nM; in assay [2], at least 500 nM; in assay [3], below 50 nM.

With `CC(C)(C(=O)N[C@@H](CCOCCCCc1ccc2c(n1)NCCC2)C(=O)O)c1ccccc1Cl` [Compound 8, N-(2-(2-chlorophenyl)-2-methylpropanoyl)-O-(4-(5,6,7,8-tetrahydro-1,8-naphthyridin-2-yl)butyl)-L-homoserine], the IC50 was below 50 nM in assay [1], at least 500 nM in assay [2] and 50 to 150 nM in assay [3].

On to `O=C(O)[C@H](CCOCCCCc1ccc2c(n1)NCCC2)NC(=O)C1(c2ccccc2F)CC1` [Compound 9, N-(1-(2-fluorophenyl)cyclopropane-1-carbonyl)-O-(4-(5,6,7,8-tetrahydro-1,8-naphthyridin-2-yl)butyl)-L-homoserine], for which the IC50 was below 50 nM in assay [1], at least 500 nM in assay [2] and below 50 nM in assay [3].

Turning to `O=C(O)[C@H](CCOCCCCc1ccc2c(n1)NCCC2)NC(=O)C1(c2ccccc2)CC1` [Compound 10, N-(1-phenylcyclopropane-1-carbonyl)-O-(4-(5,6,7,8-tetrahydro-1,8-naphthyridin-2-yl)butyl)-L-homoserine], the IC50 in assay [1] was below 50 nM; in assay [2], at least 500 nM; in assay [3], 50 to 150 nM.

With `O=C(O)[C@H](CCOCCCCc1ccc2c(n1)NCCC2)NC(=O)C1(c2cnccn2)CC1` [Compound 11, N-(1-(pyrazin-2-yl)cyclopropane-1-carbonyl)-O-(4-(5,6,7,8-tetrahydro-1,8-naphthyridin-2-yl)butyl)-L-homoserine], the values for the IC50 in assay [1], in assay [2] and in assay [3] were below 50 nM, at least 500 nM and 50 to 150 nM, respectively.

For the compound `O=C(O)[C@H](CCOCCCCc1ccc2c(n1)NCCC2)NC(=O)C1(c2ncccn2)CC1` [Compound 12, N-(1-(pyrimidin-2-yl)cyclopropane-1-carbonyl)-O-(4-(5,6,7,8-tetrahydro-1,8-naphthyridin-2-yl)butyl)-L-homoserine], the concentration for half-maximal inhibition (IC50) is 50 to 150 nM in assay [1], at least 500 nM in assay [2] and at least 500 nM in assay [3].

Consider `Cc1ncccc1C1(C(=O)N[C@@H](CCOCCCCc2ccc3c(n2)NCCC3)C(=O)O)CC1` [Compound 13, N-(1-(2-methylpyridin-3-yl)cyclopropane-1-carbonyl)-O-(4-(5,6,7,8-tetrahydro-1,8-naphthyridin-2-yl)butyl)-L-homoserine], for which the figures for the half-maximal inhibitory concentration (IC50) in assay [1], in assay [2] and in assay [3] were below 50 nM, at least 500 nM and below 50 nM, respectively.

Consider `O=C(O)[C@H](CCOCCCCc1ccc2c(n1)NCCC2)NC(=O)C1(c2ncc(F)cc2Cl)CC1` [Compound 14, N-(1-(3-chloro-5-fluoropyridin-2-yl)cyclopropane-1-carbonyl)-O-(4-(5,6,7,8-tetrahydro-1,8-naphthyridin-2-yl)butyl)-L-homoserine], for which the IC50 in assay [1] is below 50 nM; in assay [2], at least 500 nM; in assay [3], below 50 nM.

As for `O=C(O)[C@H](CCOCCCCc1ccc2c(n1)NCCC2)NC(=O)C1(c2ncccc2Cl)CC1` [Compound 15, N-(1-(3-chloropyridin-2-yl)cyclopropane-1-carbonyl)-O-(4-(5,6,7,8-tetrahydro-1,8-naphthyridin-2-yl)butyl)-L-homoserine], the IC50 in assay [1] was below 50 nM; in assay [2] it was at least 500 nM; in assay [3], below 50 nM.

For the compound `Cc1ccncc1C1(C(=O)N[C@@H](CCOCCCCc2ccc3c(n2)NCCC3)C(=O)O)CC1` [Compound 16, N-(1-(4-methylpyridin-3-yl)cyclopropane-1-carbonyl)-O-(4-(5,6,7,8-tetrahydro-1,8-naphthyridin-2-yl)butyl)-L-homoserine], the values for the IC50 in assay [1], in assay [2] and in assay [3] were below 50 nM, at least 500 nM and below 50 nM, respectively.

Take `Cc1ccccc1C1(C(=O)N[C@@H](CCOCCCCc2ccc3c(n2)NCCC3)C(=O)O)CC1` [Compound 17, O-(4-(5,6,7,8-tetrahydro-1,8-naphthyridin-2-yl)butyl)-N-(1-(o-tolyl)cyclopropane-1-carbonyl)-L-homoserine]: the IC50 in assay [1] was 50 to 150 nM; in assay [2], at least 500 nM; in assay [3], below 50 nM.

With `COc1cccc(C2(C(=O)N[C@@H](CCOCCCCc3ccc4c(n3)NCCC4)C(=O)O)CC2)n1` [Compound 18, N-(1-(6-methoxypyridin-2-yl)cyclopropane-1-carbonyl)-O-(4-(5,6,7,8-tetrahydro-1,8-naphthyridin-2-yl)butyl)-L-homoserine], the results for the 50% inhibitory concentration (IC50) in assay [1], in assay [2] and in assay [3] were 50 to 150 nM, at least 500 nM and below 50 nM, respectively.

For the compound `Cc1ncncc1C1(C(=O)N[C@@H](CCOCCCCc2ccc3c(n2)NCCC3)C(=O)O)CC1` [Compound 19, N-(1-(4-methylpyrimidin-5-yl)cyclopropane-1-carbonyl)-O-(4-(5,6,7,8-tetrahydro-1,8-naphthyridin-2-yl)butyl)-L-homoserine], the values for the half-inhibitory concentration (IC50) in assay [1], in assay [2] and in assay [3] were below 50 nM, at least 500 nM and below 50 nM, respectively.

For the compound `Cc1cccc(C2(C(=O)N[C@@H](CCOCCCCc3ccc4c(n3)NCCC4)C(=O)O)CC2)n1` [Compound 20, N-(1-(6-methylpyridin-2-yl)cyclopropane-1-carbonyl)-O-(4-(5,6,7,8-tetrahydro-1,8-naphthyridin-2-yl)butyl)-L-homoserine], the IC50 is 250 to 500 nM in assay [1], at least 500 nM in assay [2] and at least 500 nM in assay [3].

As to `O=C(O)[C@H](CCOCCCCc1ccc2c(n1)NCCC2)NC(=O)C1(c2cc(F)cnc2F)CC1` [Compound 21, N-(1-(2,5-difluoropyridin-3-yl)cyclopropane-1-carbonyl)-O-(4-(5,6,7,8-tetrahydro-1,8-naphthyridin-2-yl)butyl)-L-homoserine], the IC50 in assay [1] was below 50 nM; in assay [2] it was 150 to 250 nM; in assay [3], below 50 nM.

As to `O=C(O)[C@H](CCOCCCCc1ccc2c(n1)NCCC2)NC(=O)C1(c2cncnc2)CC1` [Compound 22, N-(1-(pyrimidin-5-yl)cyclopropane-1-carbonyl)-O-(4-(5,6,7,8-tetrahydro-1,8-naphthyridin-2-yl)butyl)-L-homoserine], the IC50 is below 50 nM in assay [1], at least 500 nM in assay [2] and 150 to 250 nM in assay [3].

By IC50 is commonly meant the concentration that inhibits the measured activity by half.

Values taken from patent US20240245682A1, “ALPHA-V-BETA-8 INTEGRIN INHIBITORS AND USES THEREOF” (Pliant Therapeutics, Inc., priority 2022, published 2024).
